Data taken from the supplement of paper PMC8882468.

Legend:
Assay in all cases: CTG-3D luminescence at 96 h relative to day-0 seeding control (ratio to day 0); higher = more growth / less cytotoxicity; PDxO 3D drug screen, 96 h, CTG-3D normalised to day-0 seeding control.
HCI-002 = test system: HCI-002 (organoid from a triple-negative breast cancer xenograft)
HCI-012 = test system: HCI-012 (organoid from a breast cancer xenograft)
HCI-023 = test system: HCI-023 (organoid from a triple-negative breast cancer xenograft)
HCI-024 = test system: HCI-024 (organoid from a breast cancer xenograft)
HCI-025 = test system: HCI-025 (organoid from a breast cancer xenograft)

O=C(O)C1(C(=O)O)CCC1.[NH2-].[NH2-].[Pt+2] [carboplatin]
CTG-3D luminescence at 96 h
Settings	12.5 pM	0.00025 µM	0.005 µM	0.1 µM	1 µM	10 µM	100 µM	625 fM
HCI-002, days in culture: 62	3.04	2.34	2.63	2.61	2.45	2.29	0.71	2.9
HCI-002, days in culture: 82	2.75	3.03	1.99	2.54	2.26	1.82	0.726	2.68
HCI-002, days in culture: 91	4.49	3.72	3.53	3.87	3.9	3.69	0.992	4.08
HCI-002, days in culture: 191	2.54	2.62	2.4	2.78	2.89	1.86	0.967	2.4
HCI-002, days in culture: 209	2.4	2.34	2.11	2.07	2.18	1.69	0.74	2.38
HCI-002, days in culture: 227	5.92	5.72	5.38	6.29	5.74	5.68	1.18	6.2
HCI-012, days in culture: 143	2.05	1.91	1.99	2.46	2.43	1.87	0.161	1.81
HCI-012, days in culture: 162	2.3	1.93	2.03	2.94	2.7	2.14	0.261	2.61
HCI-012, days in culture: 201	2.62	1.81	1.46	1.53	2.08	1.48	0.595	1.38
HCI-023, days in culture: 111	1.4	1.31	1.12	1.33	0.977	1.03	0.106	1.16
HCI-023, days in culture: 128	1.28	1.47	1.23	1.6	1.16	1.35	0.0724	1.57
HCI-024, days in culture: 105	1.38	1.54	1.37	1.52	1.36	1.64	0.14	1.71
HCI-024, days in culture: 122	1.94	1.95	1.97	1.65	1.8	2.27	0.189	2.78
HCI-024, days in culture: 163	2.01	2.27	2.06	2.67	2.1	2.03	0.608	2.43
HCI-025, days in culture: 172	2.56	1.71	3.2	1.24	2.75	1.11	0.15	1.35
HCI-025, days in culture: 209	1.97	1.73	1.67	1.49	1.79	0.85	0.119	1.86
HCI-025, days in culture: 218	1.73	1.73	1.72	2.01	1.43	1.14	0.203	1.73

Cc1cc(Nc2ncnc3ccc(NC4=NC(C)(C)CO4)cc23)ccc1Oc1ccn2ncnc2c1 [tucatinib]
CTG-3D luminescence at 96 h
Settings	12.5 pM	0.00025 µM	0.005 µM	0.1 µM	1 µM	10 µM	100 µM	625 fM
HCI-002, days in culture: 62	2.76	2.54	3.08	2.78	2.68	2.44	0.0174	2.91
HCI-002, days in culture: 82	2.73	3.27	2.09	2.6	2.75	1.59	0.0194	2.63
HCI-002, days in culture: 91	3.43	3.15	2.38	2.79	2.2	2.58	0.0163	3.48
HCI-002, days in culture: 191	2.63	2.43	2.47	2.5	3.12	2.01	0.0155	2.73
HCI-002, days in culture: 209	2.22	2.16	2.08	2.02	2.19	1.5	0.0106	2.39
HCI-002, days in culture: 227	5.23	5.28	4.84	4.86	4.14	3.82	0.0281	5.85
HCI-012, days in culture: 143	2.24	2.35	2.17	2.39	2.43	1.99	0.0289	2.05
HCI-012, days in culture: 162	2.64	2.24	1.87	3.58	2.71	2.41	0.0168	2.94
HCI-012, days in culture: 201	2.71	2.13	1.62	1.73	2.34	1.37	0.053	1.83
HCI-023, days in culture: 111	1.15	1.13	1.06	1.2	0.941	1.06	0.00921	1.65
HCI-023, days in culture: 128	1.78	1.62	1.59	2.03	1.5	1.59	0.0109	1.69
HCI-024, days in culture: 105	1.67	1.75	1.37	1.61	1.49	1.54	0.0289	2.2
HCI-024, days in culture: 122	1.99	2.82	2.36	1.93	1.73	1.83	0.0421	2.27
HCI-024, days in culture: 163	1.68	1.9	1.49	2.11	1.77	1.88	0.0384	2.18
HCI-025, days in culture: 172	3	1.87	3.97	2.2	2.35	1.75	0.0232	2.16
HCI-025, days in culture: 209	1.95	2.11	2.45	1.5	1.95	1.9	0.0118	1.06
HCI-025, days in culture: 218	1.26	1.91	1.79	1.43	1.02	1.62	0.249	1.71

C/C=C1\NC(=O)[C@H]2CSSCC/C=C/[C@H](CC(=O)N[C@H](C(C)C)C(=O)N2)OC(=O)[C@H](C(C)C)NC1=O [romidepsin]
CTG-3D luminescence at 96 h
Settings	12.5 pM	0.00025 µM	0.005 µM	0.1 µM	1 µM	10 µM	100 µM	625 fM
HCI-002, days in culture: 62	3.13	2.76	0.0634	-0.0198	-0.0112	-0.0609	-0.0931	3.1
HCI-002, days in culture: 82	3.16	3.38	0.0989	0.0435	0.0464	-0.0117	-0.0289	2.85
HCI-002, days in culture: 91	2.94	2.73	0.0516	0.028	0.0172	0.000373	-0.0143	2.7
HCI-002, days in culture: 191	3.33	3.23	-0.0284	-0.0636	-0.0937	-0.0909	-0.148	3.22
HCI-002, days in culture: 209	2.88	2.68	0.0167	-0.00615	-0.0397	-0.0225	-0.0845	2.84
HCI-002, days in culture: 227	5.16	4.82	0.108	0.0548	0.0335	0.0109	-0.0188	5.69
HCI-012, days in culture: 143	2.11	2.61	0.686	0.0407	0.0227	0.0103	-0.00702	1.66
HCI-012, days in culture: 162	2.25	2.64	0.53	0.0384	0.0172	0.00772	-0.00766	2.87
HCI-012, days in culture: 201	2.24	0.795	0.629	-0.145	-0.118	-0.159	-0.214	1.98
HCI-023, days in culture: 111	1.65	1.37	0.46	0.0304	0.0241	-0.00341	-0.0106	1.9
HCI-023, days in culture: 128	1.66	1.55	0.343	0.104	0.0518	0.00597	-0.00382	1.556
HCI-024, days in culture: 105	1.55	1.48	0.453	0.311	0.111	0.00592	-0.00576	1.92
HCI-024, days in culture: 122	1.84	2.34	0.619	0.277	0.107	0.00509	-0.00823	1.91
HCI-024, days in culture: 163	1.76	1.96	0.576	0.334	0.124	0.00767	-0.00793	1.96
HCI-025, days in culture: 172	1.84	1.14	1.58	-0.245	-0.354	-0.306	-0.318	1.48
HCI-025, days in culture: 209	1.99	2.87	1.48	0.312	0.313	0.034	-0.0293	1.94
HCI-025, days in culture: 218	1.5	2.01	0.886	-0.155	-0.189	-0.329	-0.306	1.84
